How the values were obtained:
PPARα = biological target: T1, PPARα (Homo sapiens, UniProt Q07869); test: LBD binding (data not shown), three to four-fold higher concentrations than for PPARγ
T1 construct: gene PPARA; LBD
T1 sequence (Q07869 196-468 limits assumed): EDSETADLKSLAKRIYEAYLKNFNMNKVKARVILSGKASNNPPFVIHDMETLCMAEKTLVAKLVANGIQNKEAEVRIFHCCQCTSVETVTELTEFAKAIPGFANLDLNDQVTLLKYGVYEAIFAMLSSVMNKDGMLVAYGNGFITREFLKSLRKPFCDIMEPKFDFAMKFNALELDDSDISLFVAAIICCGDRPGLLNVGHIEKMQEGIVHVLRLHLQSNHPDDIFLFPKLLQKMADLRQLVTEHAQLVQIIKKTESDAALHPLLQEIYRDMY

PPARβ/δ = biological target: T2, PPARβ/δ (Homo sapiens, UniProt Q03181); test: as above
T2 construct: gene PPARD; LBD
T2 sequence (Q03181 171-441 limits assumed): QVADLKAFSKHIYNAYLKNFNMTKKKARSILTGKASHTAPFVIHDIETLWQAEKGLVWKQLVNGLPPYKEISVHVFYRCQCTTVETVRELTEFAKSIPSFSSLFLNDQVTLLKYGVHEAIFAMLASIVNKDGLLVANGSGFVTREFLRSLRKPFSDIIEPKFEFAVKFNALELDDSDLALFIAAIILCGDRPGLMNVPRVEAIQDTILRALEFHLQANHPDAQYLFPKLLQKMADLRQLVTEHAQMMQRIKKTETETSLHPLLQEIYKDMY

PPARγ = biological target: T3, PPARγ (Homo sapiens, UniProt P37231); test: LanthaScreen TR-FRET competitive binding assay with purified LBD; supported by luciferase transactivation (partial agonist, EC50 […])
T3 construct: gene PPARG
T3 sequence (P37231 231-505 limits assumed): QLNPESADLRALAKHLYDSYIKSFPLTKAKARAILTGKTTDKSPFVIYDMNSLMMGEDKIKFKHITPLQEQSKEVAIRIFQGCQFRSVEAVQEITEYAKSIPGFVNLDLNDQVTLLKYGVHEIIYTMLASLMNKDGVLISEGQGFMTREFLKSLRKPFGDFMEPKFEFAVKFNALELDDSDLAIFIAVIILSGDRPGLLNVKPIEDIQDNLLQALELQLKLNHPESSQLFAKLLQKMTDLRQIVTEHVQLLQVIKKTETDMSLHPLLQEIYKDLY

SMILES: C=CCc1ccc(O)c(-c2ccc(O)c(CC=C)c2)c1 [honokiol]
- LBD binding (data not shown), three to four-fold higher concentrations than for (PPARα): Honokiol also bound to the LBDs of PPARα and PPARβ/δ but only at considerably (three to four-fold) higher concentrations
- LBD binding (data not shown), three to four-fold higher concentrations than for (PPARβ/δ): Honokiol also bound to the LBDs of PPARα and PPARβ/δ but only at considerably (three to four-fold) higher concentrations
- Ki (PPARγ): 22.9 µM

Source: publication PMC3790966, “Honokiol: A non-adipogenic PPARγ agonist from nature^” (Biochimica et Biophysica Acta, 2013)
